Laboratory results reported in patent US11802305B2, “Detection processes using sites of chromosome interaction” (Oxford Biodynamics PLC, priority 2015, dated 2023).

Key:
MYD88 locus = conditions: 72 hr treatment with TCP (1 uM), AML cell lines THP-1 and MV4-11, relative to untreated cells
Protocol: Two AML (acute myeloid leukemia) cell lines THP-1 and MV4-11 were tested with the above compound. […] The positions across the gene have been created and selected based on restriction sites and other features of detection and primer efficiency and were then analysed for interactions. […] Below are the PCR EpiSwitch™ marker results for the MyD88 locus for cell lines THP-1 and MV4-11. FACS analysis was used to sort for the expression of CD11b± cells, as an indicator of differentiation.
However, epigenetic changes observed for chromosome signatures are clean to follow a binary format of 0 or 1.

[1] = cited from earlier work

Row | SMILES | fold change at MYD88 locus (GEX and EpiSwitch) (MYD88 locus) [fold] | effect on lifespan of ALS patients [1]
1 | N[C@@H]1C[C@H]1c1ccccc1 (racemic) [TCP, tranylcypromine] | 1.5 | 
2 | Nc1nc2ccc(OC(F)(F)F)cc2s1 [riluzole] |  | modest increase in lifespan
